Assay results as given in patent publication US10995068B2, “Synthetic sphingolipid-like molecules, drugs, methods of their synthesis and methods of treatment” (The Regents of the University of California, priority 2015, dated 2021).
Entries after “also recorded” stand apart in the source; their conditions may differ.

Columns and labels:
[1] = test system: murine hematopoietic cell line FL5.12; assay: Viability of FL5.12 cells by vital dye exclusion; type: cell-based; details: FL5.12 cells, 48 h, vital dye exclusion, n ≥3
Procedure: (§1) Cell culture studies: FL5.12 cells (murine hematopoetic cells originally obtained from Craig Thompson, Memorial Sloan Kettering Cancer Center) were maintained at 0.1-0.5 million/ml in RPMI 1640 (Mediatech) supplemented with 10% fetal calf serum (FCS, Sigma-Aldrich), 10 mM Hepes (Mediatech), 500 pg/ml recombinant IL-3 (cat #575502, Biolegend), 55 μM β-mercaptoethanol (Sigma-Aldrich), 2 mM L-glutamine (Mediatech), and antibiotics. Cells were screened for Mycoplasma every 3 months using the Look-Out Mycoplasma PCR Detection kit (cat #MP0035, Sigma).
IC50 values were calculated using GraphPad Prism (GraphPad Software, Inc, La Jolla, Calif.).

FL5.12 cells = assay: Vacuolation assay; type: cell-based, murine; set-up: key to Vacuolation score: 0-100 score: (3×%cat3+2×%cat2+1×%cat1)/3; cells graded 0-3 for vacuoles; details: FL5.12 cells; for Vacuolation score: 3 h in 2.5 μM compound except where otherwise indicated, mean ± SEM, n ≥3; for vacuolation (in words): at any dose / highest dose tested
Procedure: (§2) In an exemplified study, nutrient transporter down-regulation was monitored by quantifying surface levels of the amino acid transporter-associated protein, CD98, by flow cytometry. Vacuolation was scored in a range from 0 to […], as determined by a vacuolation assay described in greater detail in the Materials and Methods section below.
Vacuolation assay: Cells were evaluated at 100× using brightfield microscopy and a Nikon TE2000-S fluorescence microscope equipped with DIC filters. Vacuolation was quantified after a 3 h incubation period in 2.5 μM compound except where otherwise indicated. To calculate a vacuolation score, vacuolation severity in at least 15 individual cells/experiment was assessed qualitatively. Scores were assigned to individual cells as follows: 0=no vacuoles, 1=very small vacuoles, 2=multiple well-defined vacuoles, 3=multiple large vacuoles. To calculate the vacuolation score associated with a compound, the following formula was used: vacuolation score=[(3×% cells in category 3)+(2×% cells in category 2)+(1×% cells in category 1)]/3.
The score is divided by 3 so that a compound with 100% of its cells in category 3 would have a vacuolation score of 100. Three independent experiments were conducted and the vacuolation scores averaged to generate a mean+/−SEM. All cells were scored by one lab member after confirming that a blinded individual scored 5 compounds with similar results.

CD98 (4F2hc, SLC3A2) = assay: Surface CD98 nutrient transporter down-regulation by flow cytometry; type: cell-based, murine; details: FL5.12 cells
Source text: as §2, §1
Nutrient transporter expression: Surface CD98 (4F2hc, SLC3A2) expression was measured at 3 h using phycoerythrin (PE)-conjugated rat anti-mouse CD98 antibody (Biolegend, cat #128208); analysis was restricted to viable cells. PE conjugated Rat IgG2a, k (cat #400508, Biolegend) was used as an isotype control. For staining, 200,000 cells were pelleted, re-suspended in 100 μl FACS block (PBS with 10% FCS and 0.05% NaN3) containing 0.25 μL anti-CD98 antibody, incubated on ice for 30 min, washed twice with 1 ml FACS wash (PBS containing 2% FCS and 0.05% NaN3), and analyzed on a BD LSR II flow cytometer. Data was processed with FlowJo software (Treestar).

PP2A = PP2A phosphatase activity; type: biochemical, murine; details: PP2A immunoprecipitated from FL5.12 cell lysates, phosphopeptide dephosphorylation
Source text: Furthermore, many embodiments of the invention are directed to azacyclic constrained sphingolipid-like molecules inducing internalization of nutrient transporters via a mechanism that activates PP2A. […] Thus, activation of PP2A is very peculiar to certain sphingolipid structures. Activation of PP2A by FTY720 and SH-BC-893 also stimulated vacuolation, and as the PP2A inhibitors calyculin A and SV40 small t antigen, each blocked this effect (FIG. 59C). Of note, YM201636-induced vacuolation was unaffected by PP2A inhibition (FIG. 60B). In addition, inhibiting PP2A restored PIKfyve to the proper location within vacuoles in cells treated with FTY720 or SH-BC-893 (FIG. 57D).
PP2A phosphatase activity. PP2A activity was measured using a PP2A immunoprecipitation phosphatase assay kit (EMD Millipore). Briefly, the catalytic subunit of PP2A was immunoprecipitated from FL5.12 cell lysates with 4 μg anti-PP2A, C subunit. After four washes, the activity of immunoprecipitated PP2A was assessed by dephosphorylation of the phosphopeptide according to the manufacturer's instructions in the presence or absence of C2-ceramide, dihydro-C2-ceramide, FTY720, SH-BC-893, or calyculinA.

Row | PP2A activation (PP2A) | SMILES | IC50 ([1]; read-out: IC50 (μM) [95% CI]) | Vacuolation score (FL5.12 cells) | vacuolation (in words) (FL5.12 cells) | concentration required to cause similar transporter loss (CD98 (4F2hc, SLC3A2); CD98 loss) | % CD98 down-regulation (CD98 (4F2hc, SLC3A2); surface CD98 at 3 h, flow cytometry, mean ± SEM, n ≥3) | IC50 (μM) [95% CI] [1]
1 | activating PP2A | CCCCCCCCCCCCC/C=C/[C@@H](O)[C@H](CO)NC(C)=O [Compound 109, C2-ceramide, reference compound] | 33 µM | 0 | did not cause vacuolation | 50 µM | 47 ± 3% | 
2 | does not activate PP2A | CCCCCCCCCCCCCCC[C@@H](O)[C@H](CO)NC(C)=O [Compound 110, dihydro-C2-ceramide, reference compound] |  | 0 | caused no vacuolation |  |  | failed to kill cells; also recorded: Cytostatic
